Earlier results on 1 compound are cited in patent US20060057204A1, “Pharmaceutical compositions containing venlafaxine” (priority 2002, published 2006).

Counter-ions that a name gives are not always drawn.

For the data set the following is noted: plural daily dosing regimen.

For `COc1ccc(C(CN(C)C)C2(O)CCCCC2)cc1` (centres unmarked) [venlafaxine hydrochloride, 1-[(2-dimethylamino)-1-(4-methoxyphenyl)ethyl] cyclohexanol], the “nausea, patients under treatment” value is given as “about forty five percent” and the “vomiting, patients” value is on record as “about seventeen percent”.
